Measurements: patent publication US10688099B2, “Methods for modulating the amount of RNA transcripts” (PTC Therapeutics, Inc., priority 2013, dated 2020)

Key:
[1] = tested on: SMN2 FL and SMN2 Δ7 mRNA; experiment: RT-qPCR analysis of SMN2 full length (FL) and Δ7 mRNAs in cultured cells; format: cell-based, human; conditions: FIG. 1
Protocol: Cells are plated at a certain density in an appropriate medium in 96-well flat-bottom plates. The plate is immediately swirled to ensure even distribution of the cells to ensure the formation of an even monolayer of cells and incubated for 6-24 hrs at 37° C. Cells are then treated with serially diluted test compound (e.g., 3.16-fold dilution factor, 0.5% final concentration of DMSO), in duplicate, for desired time under appropriate conditions (e.g., 37° C., 5% CO2, 100% relative humidity). After supernatant removal, cells are lysed (e.g., in Cells-To-Ct lysis buffer, Life Technologies). The levels of RNA of interest, and a reference RNA (e.g., GAPDH mRNA) are quantified (e.g., by using Taqman-based RT-qPCR) by assays designed to detect each mRNA of interest specifically. The forward and reverse primers are used at the appropriate concentration (e.g., 0.1-1 μM), as well as the probe (e.g., 0.1 to 0.3 μM). GAPDH primers are typically at 0.1 μM and the probe at 0.075 μM. RT-qPCR is carried out using an appropriate protocol. One example of such a protocol is the following temperatures for indicated time: Step 1: 48° C. (15 min); Step 2: 95° C. (10 min); Step 3: 95° C. (15 sec); Step 4: 60° C. (1 min); then, repeat Steps 3 and 4 for a total of 40 cycles. Fluorescence is recorded in each cycle at the end of the Step 4 incubation. […] The Ct values for each mRNA are converted to mRNA abundance using actual PCR efficiencies, and may be calculated essentially as described in Liu and Saint (Anal Biochem 302:52). […]
GM03813 (Coriell Institute) and PNN 1-46 fibroblasts (Columbia University) derived from SMA Type I patients were plated at 5,000 cells/well in 200 μL Dulbecco's modified Eagle's medium (DMEM) with GlutaMAX and 10% fetal bovine serum (FBS) (Life Technologies, Inc.) in 96-well plates, and incubated for 6 hours in a cell culture incubator (37° C., 5% CO2, 100% relative humidity). […] The mRNA levels of SMN2 FL, SMN2 Δ7 and GAPDH were quantified using Taqman-based RT-qPCR and SMN2-specific primers and probes in Table 5 (purchased from Life Technologies, Inc.). […]

[2] = tested on: splice junctions in human transcripts, PNN 1-46 cells; experiment: RNA sequencing, splice-site (splice junction) analysis, Compound vs DMSO control; format: cell-based
Protocol: PNN 1-46 cells derived from a Type I SMA patient were treated with Compound 702 at 500 nM for 24 hours. RNA was purified with the RNeasy Mini Kit (Qiagen) for mRNA sequencing on HiSeq 2500 (Illumina Inc., San Diego, Calif.). The quality of the total RNA was assessed using UV spectrophotometry and agarose gel electrophoresis. Template DNA molecules suitable for cluster generation were prepared from 1 ug of total RNA samples using the TruSeq RNA Sample Preparation Kit v2 (Illumina Inc., San Diego, Calif.) according to the manufacturer's instructions. The size distribution of the libraries was estimated by electrophoresis on Agilent High Sensitivity Bioanalyzer microfluidic chips. The minimum and average sizes of the amplified libraries were determined to be >200 nucleotides and 300-340 nucleotides, respectively. Libraries were quantified using the KAPA Library Quantification Kit (KK4824, Kapa Biosystems, Boston, Mass.). The libraries were pooled at equimolar concentrations and diluted prior to loading onto the flow cell of the HiSeq 2500 (Illumina Inc., San Diego, Calif.) for both clustering and sequencing. The libraries were extended and bridge-amplified to create single sequence clusters using the TruSeq Rapid PE Cluster Kit—HS (Illumina Inc., San Diego, Calif.). Amplified clusters in the flow cell were then sequenced with 50-bp paired-end reads using the TruSeq Rapid SBS Kit—HS (Illumina Inc., San Diego, Calif.) in rapid run mode. Real time image analysis and base calling were performed on the HiSeq 2500 instrument using the HiSeq Sequencing Control Software (HCS). CASAVA software version 1.8 was used for de-multiplexing and production of FASTQ sequence files.
In order to estimate gene expression levels, paired-end RNAseq reads were subsequently mapped to RefSeq human transcripts (release 60) and the human genome (hg19) by using the short read aligner Bowtie2 (Langmead et al., 2012. Nature methods 9:357). The number of mapped reads for all transcript variants of a gene (counts) were combined into a single value and normalized denoted as rpkms (number of mapped reads per kilobase transcript per million sequenced reads, (Mortazavi et al., 2008. Nature methods 5:621)). The splice-site analysis was performed by mapping the paired-end RNASeq reads to RefSeq human transcripts using the alignment software GSNAP with default parameters and the option ‘sam-multiple-primaries’ in order to account for reads that were mapped multiple times to different splice variants. The number of reads spanning splice-sites was determined by applying the samtools mpileup software with default parameters for each transcript. Reads having an alignment start or end exactly on the splice-site were excluded from the analysis (Wu et al., 2005, Bioinformatics 21:1859; Wu et al., 2010, Bioinformatics 26:873; Li et al., 2009, Bioinformatics 25:2078). […]

[3] = SMA Type I patient fibroblasts, treatment for 24 hours
[4] = 500 nM vs DMSO control, FIG. 2C

CCN1CCC(c2cc(C)c3nc(-c4cc5c(C)nc(C)cn5n4)cc(=O)n3c2)CC1 [Compound 702]
splicing alteration of SMN2 transcripts ([1]; SMA Type I fibroblast cells (PNN 1-46), 500 nM, 24 hours): complete splicing alteration of all SMN2 transcripts | expression of exon 7 lacking (Δ7) mRNA [1, 3]: dose dependent expression | expression of full length (FL) mRNA [1, 3]: dose dependent expression | effect on STRN3 transcript variants [2, 4]: a switch between variants NM_014574 and NM_001083893 | genes to which the splice junctions with p>300 belong [2, 4]: SMN2, PDXDC1, STRN3, and pseudogene PDXDC2P | splice junctions with p>300 (p=Δ×Log2 FC) [2, 4]: 20 splice junctions | splice junctions with p>300 that belong to PDXDC1, all similarly affected [2, 4]: 15 splice junctions | splice junctions with p>100 (p=Δ×Log2 FC) ([2]; 500 nM vs DMSO control, out of about 300,000 splice junctions analyzed, FIG. 2C): 114 splice junctions | up spl j gene (gene with upregulated splice junctions) ([2]; PNN 1-46, 500 nM, 24 hours, splice junctions with p>100, * = pseudogene): STRN3 and APLP2 and TEX21P* and RCC1 and FOXM1 and VPS29
